We go through 2 molecules from patent US20230175072A1, “3 FLAP OKAZAKI FRAGMENTS AND USES THEREOF” (City of Hope, priority 2021, published 2023).

Assay [1] relates to yeast cells. The conditions noted are these: rad27Δ cells; cited from earlier work.
In assay [2] the test system is yeast cells. Briefly: MMS sensitivity spot assay. It counts as cell-based, Saccharomyces cerevisiae. To be noted: YPD plates, 30° C., 48 h. How it is done:
FIG. 6. pol3 ITD-bearing rad27Δ revertant mutations or pol3 ITD knock-in of rad27Δ cells partially reverses MMS-induced lethality. Viability of WT, pol3 ITD knock-in, rad27Δ, rad27Δ with the pol3 ITD knock-in mutation, and a rad27Δ revertant carrying a pol3 ITD mutation was analyzed using spot assays. Yeast cells of the indicated genetic backgrounds were serially diluted and spotted on YPD plates containing the indicated level of MMS. The plates were incubated at 30° C. for 48 hours.
To assay the MMS sensitivity of different yeast strains, 0.005%, 0.01%, 0.015% or 0.02% MMS was added to YPD plates after autoclaving, and plates were used the same day. Yeast cells were serially diluted and spotted on YPD plates containing different levels of MMS. The plates were incubated at 30° C. for 48 h.

Another assay has as its target T1, Chk1 (Mus musculus, UniProt O35280).
T1 construct: from tissue; host or cells: live mice (129S1 background), WT and FEN1 WT/FFAA heterozygotes
T1 sequence (O35280 1-476): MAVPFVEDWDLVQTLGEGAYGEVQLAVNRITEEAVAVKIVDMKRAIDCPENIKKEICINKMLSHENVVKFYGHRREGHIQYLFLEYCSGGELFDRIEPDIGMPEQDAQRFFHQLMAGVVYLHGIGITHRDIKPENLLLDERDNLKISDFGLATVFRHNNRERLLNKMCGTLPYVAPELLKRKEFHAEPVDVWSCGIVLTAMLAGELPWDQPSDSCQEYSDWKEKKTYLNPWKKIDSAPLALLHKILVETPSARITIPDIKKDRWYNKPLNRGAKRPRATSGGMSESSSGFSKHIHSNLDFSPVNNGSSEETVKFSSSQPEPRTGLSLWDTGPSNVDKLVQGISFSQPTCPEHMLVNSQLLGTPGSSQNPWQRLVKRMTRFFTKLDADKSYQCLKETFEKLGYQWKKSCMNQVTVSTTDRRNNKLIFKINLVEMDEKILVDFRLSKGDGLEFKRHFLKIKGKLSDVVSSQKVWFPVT
Briefly: Chk1 inhibition and lung cancer development in FEN1 FFAA mutant mice. It counts as in vivo. The conditions noted are these: 0.025 mg/kg intraperitoneal once per week for four weeks from 6 months, lung tumors assessed at 16 months, vs DMSO. From the text: FEN1 F343A/F344A (FFAA) heterozygous mice (WT/FFAA, 129S1 genetic background), which develop lung adenoma or adenocarcinoma at a high frequency (32), were in-line bred and housed in the Animal Resource Center at City of Hope. All experimental protocols involving animals were approved by the Institutional Animal Care and Use Committee of City of Hope in compliance with the Public Health Service policies of the United States. To determine the extent to which inhibiting Chk1 suppressed cancer development in FEN1 FFAA mutant mice, randomly selected WT or WT/FFAA male or female mice (6 months old) were treated with 0.025 mg/kg body weight SB218078 (Chk1 inhibitor) in DMSO via intraperitoneal injection once per week for four weeks. Untreated control mice were injected with the same volume of DMSO (vehicle). All mice were euthanized at 16 months of age. The presence of lung tumors was determined using anatomic and histopathological analysis in blinding fashion. For whole exome sequencing (WES) studies, WT or FEN1 A159V/WT mice (33) were euthanized at 16 months, and normal lung or lung tumors were dissected for total genomic DNA extraction and purification.
Two-tailed student's t-test was used to determine significance in differences in mutation rate assays and the hypergeometric test was used to determine the significance in the enrichment of a signaling pathway. […]

“Also recorded” adds a separate entry of the source. Like-named read-outs stand apart in the source and are kept apart here.

Consider `COS(C)(=O)=O` [MMS, methyl methanesulfonate], for which the “MMS sensitivity of yeast cells” value was “sensitive” in the assay on yeast cells [1]; “sensitive” with yeast cells [2] (pol3 ITD cells in a WT RAD27 background, high concentrations of MMS); “sensitive” with yeast cells [2] (rad27Δ revertant cells and rad27Δ pol3 ITD knock-in mutant cells, higher concentrations (≥0.01%) MMS); “resistant” with yeast cells [2] (rad27Δ revertant cells and rad27Δ pol3 ITD knock-in mutant cells, low concentration (0.005%) MMS).
As to `O=C1NC(=O)c2c1c1c3ccccc3n3c1c1c2c2ccccc2n1C1CCC3O1` [SB218078], the “spontaneous lung cancer development” value on Chk1 (WT mice) is reported as “not in WT mice”; on Chk1 (WT/FFAA (FEN1 F343A/F344A heterozygous) mice, 0.025 mg/kg), “significantly inhibited spontaneous lung cancer development; also recorded: blocks lung cancer development”.
